{"source": "ChEMBL document CHEMBL1687743", "about": "“Intravenous doripenem at 500 milligrams versus levofloxacin at 250 milligrams, with an option to switch to oral therapy, for treatment of complicated lower urinary tract infection and pyelonephritis” (Antimicrob Agents Chemother, 2009)", "key": {"[1]": {"system": "Pseudomonas aeruginosa", "experiment": "Antibacterial activity against Pseudomonas aeruginosa isolated from patient with urinary tract infection receiving drug at 250 mg, iv qd for 10 days measured after post drug therapy", "assay_type": "functional", "settings": "Urine, 240 h"}, "[2]": {"system": "Homo sapiens", "experiment": "Treatment emergent adverse event in intent-to-treat patient with complicated urinary tract infection assessed as insomnia at 250 […], iv qd for 10 days", "assay_type": "ADME, organism-based, Urine", "design": "route intravenous", "settings": "in vivo, 240 h"}, "[3]": {"system": "Homo sapiens", "experiment": "Treatment emergent adverse event in intent-to-treat patient with complicated urinary tract infection assessed as >=1 adverse event at 250 […], iv qd for 10 days", "assay_type": "organism-based, Urine", "design": "dose 250 mg/kg, route intravenous", "settings": "in vivo, 240 h"}, "[4]": {"system": "Escherichia coli", "experiment": "Antibacterial activity against levofloxacin-resistant Escherichia coli infected in microbiologically evaluable patient with UTI assessed as cure rate at 250 mg, iv qd for 10 days measured at test-of-cure visit", "assay_type": "functional"}, "[5]": {"system": "Homo sapiens", "experiment": "Treatment emergent adverse event in intent-to-treat patient with complicated urinary tract infection assessed as back pain at 250 […], iv qd for 10 days", "assay_type": "organism-based", "design": "route intravenous", "settings": "in vivo, 240 h"}, "[6]": {"system": "Escherichia coli", "experiment": "Antibacterial activity against levofloxacin-resistant Escherichia coli infected in clinically evaluable patient with UTI assessed as cure rate at 250 mg, iv qd for 10 days measured at test-of-cure visit", "assay_type": "functional"}, "[7]": {"system": "Homo sapiens", "experiment": "Treatment emergent adverse event in intent-to-treat patient with complicated urinary tract infection assessed as hypokalemia at 250 […], iv qd for 10 days", "assay_type": "ADME, organism-based, Urine", "design": "route intravenous", "settings": "in vivo, 240 h"}, "[8]": {"system": "Homo sapiens", "experiment": "Drug related treatment emergent adverse event in intent-to-treat patient with complicated urinary tract infection assessed as headache at 250 […], iv qd for 10 days", "assay_type": "toxicity, organism-based, Urine", "design": "dose 250 […], route intravenous", "settings": "in vivo, 240 h"}, "[9]": {"system": "Homo sapiens", "experiment": "Drug related treatment emergent adverse event in intent-to-treat patient with complicated urinary tract infection assessed as diarrhea at 250 […], iv qd for 10 days", "assay_type": "toxicity, organism-based", "design": "dose 250 […], route intravenous", "settings": "in vivo, 240 h"}, "[10]": {"system": "Pseudomonas aeruginosa", "experiment": "Antibacterial activity against levofloxacin-resistant Pseudomonas aeruginosa"}, "[11]": {"system": "Homo sapiens", "experiment": "Treatment emergent adverse event in intent-to-treat patient with complicated urinary tract infection assessed as nausea at 250 […], iv qd for 10 days", "assay_type": "ADME, organism-based, Urine", "design": "route intravenous", "settings": "in vivo, 240 h"}, "[12]": {"system": "Homo sapiens", "experiment": "Drug related treatment emergent adverse event in intent-to-treat patient with complicated urinary tract infection assessed as nausea at 250 […], iv qd for 10 days", "assay_type": "toxicity, organism-based, Urine", "design": "dose 250 […], route intravenous", "settings": "in vivo, 240 h"}, "[13]": {"system": "Homo sapiens", "experiment": "Drug related treatment emergent adverse event in intent-to-treat patient with complicated urinary tract infection assessed as >=1 adverse event at 250 […], iv qd for 10 days", "assay_type": "toxicity, organism-based", "design": "dose 250 mg/kg, route intravenous", "settings": "in vivo, 240 h"}, "[14]": {"system": "Homo sapiens", "experiment": "Treatment emergent adverse event in intent-to-treat patient with complicated urinary tract infection assessed as headache at 250 […], iv qd for 10 days", "assay_type": "ADME, organism-based, Urine", "design": "route intravenous", "settings": "in vivo, 240 h"}, "[15]": {"system": "Proteus mirabilis", "experiment": "Antibacterial activity against Proteus mirabilis isolated from patient with urinary tract infection receiving drug at 250 mg, iv qd for 10 days measured after post drug therapy", "assay_type": "functional", "settings": "Urine, 240 h"}, "[16]": {"system": "Proteus mirabilis", "experiment": "Antibacterial activity against Proteus mirabilis infected in microbiologically evaluable patient with UTI assessed as cure rate at 250 mg, iv qd for 10 days measured at test-of-cure visit", "assay_type": "functional"}, "[17]": {"system": "Escherichia coli", "experiment": "Antibacterial activity against Escherichia coli isolated from patient with urinary tract infection receiving drug at 250 mg, iv qd for 10 days measured after post drug therapy", "assay_type": "functional", "settings": "Urine, 240 h"}, "[18]": {"system": "Escherichia coli", "experiment": "Antibacterial activity against levofloxacin-resistant Escherichia coli", "assay_type": "functional"}, "[19]": {"system": "Homo sapiens", "experiment": "Treatment emergent adverse event in intent-to-treat patient with complicated urinary tract infection assessed as constipation at 250 […], iv qd for 10 days", "assay_type": "organism-based", "design": "route intravenous", "settings": "in vivo, 240 h"}, "[20]": {"system": "Homo sapiens", "experiment": "Drug related treatment emergent adverse event in intent-to-treat patient with complicated urinary tract infection assessed as upper abdominal pain at 250 […], iv qd for 10 days", "assay_type": "toxicity, organism-based", "design": "dose 250 […], route intravenous", "settings": "in vivo, 240 h"}, "[21]": {"system": "Homo sapiens", "experiment": "Treatment emergent adverse event in intent-to-treat patient with complicated urinary tract infection assessed as asymptomatic bacteriuria at 250 […], iv qd for 10 days", "assay_type": "organism-based, Urine", "design": "route intravenous", "settings": "in vivo, 240 h"}, "[22]": {"system": "Klebsiella pneumoniae", "experiment": "Antibacterial activity against Klebsiella pneumoniae infected in microbiologically evaluable patient with UTI assessed as cure rate at 250 mg, iv qd for 10 days measured at test-of-cure visit", "assay_type": "functional"}, "[23]": {"system": "Escherichia coli", "experiment": "Antibacterial activity against Escherichia coli infected in microbiologically evaluable patient with UTI assessed as cure rate at 250 mg, iv qd for 10 days measured at test-of-cure visit", "assay_type": "functional"}, "[24]": {"system": "Klebsiella pneumoniae", "experiment": "Antibacterial activity against Klebsiella pneumoniae isolated from patient with urinary tract infection receiving drug at 250 mg, iv qd for 10 days measured after post drug therapy", "assay_type": "functional", "settings": "Urine, 240 h"}, "[25]": {"system": "Homo sapiens", "experiment": "Treatment emergent adverse event in intent-to-treat patient with complicated urinary tract infection assessed as urinary tract infection at 250 […], iv qd for 10 days", "assay_type": "ADME, organism-based", "design": "route intravenous", "settings": "in vivo, 240 h"}, "[26]": {"system": "Homo sapiens", "experiment": "Treatment emergent adverse event in intent-to-treat patient with complicated urinary tract infection assessed as upper abdominal pain at 250 […], iv qd for 10 days", "assay_type": "ADME, organism-based, Urine", "design": "route intravenous", "settings": "in vivo, 240 h"}, "[27]": {"system": "Homo sapiens", "experiment": "Treatment emergent adverse event in intent-to-treat patient with complicated urinary tract infection assessed as diarrhea at 250 […], iv qd for 10 days", "assay_type": "organism-based", "design": "route intravenous", "settings": "in vivo, 240 h"}, "[28]": {"system": "Homo sapiens", "experiment": "Treatment emergent adverse event in intent-to-treat patient with complicated urinary tract infection assessed as abdominal pain at 250 […], iv qd for 10 days", "assay_type": "organism-based", "design": "route intravenous", "settings": "in vivo, 240 h"}, "[29]": {"system": "Proteus mirabilis", "experiment": "Antibacterial activity against levofloxacin-resistant Proteus mirabilis", "assay_type": "functional"}, "[30]": {"system": "Homo sapiens", "experiment": "Drug related treatment emergent adverse event in intent-to-treat patient with complicated urinary tract infection assessed as phlebitis at 250 […], iv qd for 10 days", "assay_type": "toxicity, organism-based, Urine", "design": "dose 250 […], route intravenous", "settings": "in vivo, 240 h"}, "[31]": {"system": "Homo sapiens", "experiment": "Treatment emergent adverse event in intent-to-treat patient with complicated urinary tract infection assessed as phlebitis at 250 […], iv qd for 10 days", "assay_type": "organism-based", "design": "route intravenous", "settings": "in vivo, 240 h"}, "[32]": {"system": "Homo sapiens", "experiment": "Treatment emergent adverse event in intent-to-treat patient with complicated urinary tract infection assessed as vomiting at 250 […], iv qd for 10 days", "assay_type": "ADME, organism-based, Urine", "design": "route intravenous", "settings": "in vivo, 240 h"}, "[33]": {"system": "Enterococcus faecalis", "experiment": "Antibacterial activity against levofloxacin-resistant Enterococcus faecalis"}}}
{"smiles": "C[C@H]1COc2c(N3CCN(C)CC3)c(F)cc3c(=O)c(C(=O)O)cn1c23.C[C@H]1COc2c(N3CCN(C)CC3)c(F)cc3c(=O)c(C(=O)O)cn1c23.O", "note": "[LEVOFLOXACIN]", "values": [{"measurement": "MIC", "setting": "[1]", "value": 0.25, "unit": "µg/mL"}, {"measurement": "Activity", "setting": "[2]", "value": 3, "unit": "%"}, {"measurement": "Activity", "setting": "[3]", "value": 60, "unit": "%"}, {"measurement": "Activity", "setting": "[4]", "value": 29, "unit": "%"}, {"measurement": "Activity", "setting": "[5]", "value": 4.6, "unit": "%"}, {"measurement": "Activity", "setting": "[6]", "value": 33, "unit": "%"}, {"measurement": "Activity", "setting": "[7]", "value": 3.5, "unit": "%"}, {"measurement": "Activity", "setting": "[8]", "value": 2.7, "unit": "%"}, {"measurement": "Activity", "setting": "[9]", "value": 5.9, "unit": "%"}, {"measurement": "MIC", "setting": "[10]", "value": 32, "unit": "µg/mL"}, {"measurement": "Activity", "setting": "[11]", "value": 5.9, "unit": "%"}, {"measurement": "Activity", "setting": "[12]", "value": 1.6, "unit": "%"}, {"measurement": "Activity", "setting": "[13]", "value": 25, "unit": "%"}, {"measurement": "Activity", "setting": "[14]", "value": 14.5, "unit": "%"}, {"measurement": "MIC", "setting": "[15]", "value": 0.25, "unit": "µg/mL"}, {"measurement": "Activity", "setting": "[16]", "value": 86.7, "unit": "%"}, {"measurement": "MIC", "setting": "[17]", "value": 0.25, "unit": "µg/mL"}, {"measurement": "MIC", "setting": "[18]", "value": 32, "unit": "µg/mL"}, {"measurement": "Activity", "setting": "[19]", "value": 4.8, "unit": "%"}, {"measurement": "Activity", "setting": "[20]", "value": 2.2, "unit": "%"}, {"measurement": "Activity", "setting": "[21]", "value": 1.1, "unit": "%"}, {"measurement": "Activity", "setting": "[22]", "value": 62.5, "unit": "%"}, {"measurement": "Activity", "setting": "[23]", "value": 87.2, "unit": "%"}, {"measurement": "MIC", "setting": "[24]", "value": 2, "unit": "µg/mL"}, {"measurement": "Activity", "setting": "[25]", "value": 1.6, "unit": "%"}, {"measurement": "Activity", "setting": "[26]", "value": 3.5, "unit": "%"}, {"measurement": "Activity", "setting": "[27]", "value": 9.9, "unit": "%"}, {"measurement": "Activity", "setting": "[28]", "value": 3.5, "unit": "%"}, {"measurement": "MIC", "setting": "[29]", "value": 32, "unit": "µg/mL"}, {"measurement": "Activity", "setting": "[30]", "value": 3, "unit": "%"}, {"measurement": "Activity", "setting": "[31]", "value": 4, "unit": "%"}, {"measurement": "Activity", "setting": "[32]", "value": 4.3, "unit": "%"}, {"measurement": "MIC", "setting": "[33]", "value": 16, "unit": "µg/mL"}]}
